# Assay results reported in paper PMC11474028, “Lipopeptide antibiotics disrupt interactions of undecaprenyl phosphate with UptA” (Proceedings of the National Academy of Sciences of the …, 2024).
# Entries after “also recorded” stand apart in the source; their conditions may differ.
# Test system: UptA E32A
# Assay: Native MS of C55-P binding to UptA mutant E32A
# Design: species or system Bacillus subtilis
# Details: 2.5 µM E32A UptA and 10 µM C55-P, pH 8.0
# Source text: Conserved arginine residues in the putative membrane reentrant loops of E. coli DedA proteins YqjA (R130) and YghB (R136) are important for the cellular role of these proteins ([36]). […] How these residues impact substrate interactions, however, is not known. Based on the model structure of UptA predicted by AlphaFold, the R112 residue should engage Q64 while R118 is able to form hydrogen bonds with E32, H119, and W146 to potentially stabilize the membrane reentrant loops (Fig. 3A). To test for the impact of these residues on C55-P binding, we generated the E32A, Q64A, R112A, R118A, H119A, and W146A UptA single mutants. After purification of the proteins, using the same protocol as the wild type (WT) (Materials and Methods and SI Appendix, Fig. […]
# Expression and purification of UptA
# Plasmids were used to transform chemically competent E. coli C43(DE3) cells (Lucigen) and selected on LB/Agar containing 100 μg/ml ampicillin at 37 °C. Single colonies were used to inoculate 60 mL LB containing 100 μg/ml ampicillin and were grown at 37 °C overnight for 16 h. […]
# The digestion mixture was subsequently incubated with 2-mL bed volume of nickel nitriloacetic acid (NTA) agarose resin to remove His-tagged GFP and TEV protease. […] Concentration was measured using a Biomate UV spectrophotometer at 280 nm using extinction coefficients calculated from their predicted amino […]
smiles,measurement,value
"CC(C)=CCC/C(C)=C/CC/C(C)=C/CC/C(C)=C\CC/C(C)=C\CC/C(C)=C\CC/C(C)=C\CC/C(C)=C\CC/C(C)=C\CC/C(C)=C\CC/C(C)=C\COP(=O)(O)O [C55-P, undecaprenyl phosphate]",C55-P binding to E32A UptA dimers versus monomers (in words),more significantly than the monomeric form; also recorded: relative intensity of ligand-bound dimers is significantly higher than the ligand-bound monomers
same,impact of C55-P binding on monomer–dimer ratio of E32A UptA (in words),modest increase in the dimer fraction; also recorded: only a modest impact on the monomer–dimer ratios
